Values of other authors, collected in patent publication US5362496A, “Method and therapeutic system for smoking cessation” (priority 1993, dated 1994).
Like-named read-outs stand apart in the source and are kept apart here. Peptide text beside a SMILES is read from it.

Columns and labels:
[1] = relative, Sucrose = 1.0
[2] = human cadaver skin in vitro
[3] = free base; mucous membranes and intact skin
[4] = tested on: nicotinic cholinergic receptors in the central nervous system and at autonomic ganglia; settings: in 10 minutes
[5] = tested on: Streptococcus mutans and other oral microorganisms
[6] = in vitro and in vivo studies
[7] = humans

| Compound | Sweetness [1] | cariogenicity [5] | also measured |
| --- | --- | --- | --- |
| COC(=O)[C@H](Cc1ccccc1)NC(=O)[C@@H](N)CC(=O)O [Aspartame] (H-Asp-Phe-OMe) | 100-200 |  |  |
| CN1CCCC1c1cccnc1 (stereo not shown) [nicotine] |  |  | skin permeability ([2]; first day of patch use): ~0.1 mg/cm^2 ·h; skin permeability ([2]; later times): ≥ 0.4 mg/cm^2 ·h; absorption through membranes and skin [3]: absorbed readily through mucous membranes and intact skin; lipid solubility: highly lipid soluble; volatility (free base): extremely volatile; light stability (ultraviolet light): degrades when exposed to ultraviolet light; rise in nicotine blood level required for postsynaptic effects [4]: at least 10 ng/mL |
| OC[C@H]1O[C@@](CO)(O[C@H]2O[C@H](CO)[C@@H](O)[C@H](O)[C@H]2O)[C@@H](O)[C@@H]1O [sucrose, reference compound] |  | cariogenic or caries causing |  |
| O=C(CO)[C@@H](O)[C@H](O)[C@H](O)CO[C@H]1O[C@H](CO)[C@@H](O)[C@H](O)[C@H]1O [Palantinose] | 0.4-0.5 | generally not fermented to any significant degree and are less cariogenic than sucrose |  |
| O=S(=O)(O)NC1CCCCC1 [Cyclamate] | 30-40 |  |  |
| CC1(C)[C@@H](O[C@H]2O[C@H](C(=O)O)[C@@H](O)[C@H](O)[C@H]2O[C@@H]2O[C@H](C(=O)O)[C@@H](O)[C@H](O)[C@H]2O)CC[C@]2(C)[C@H]3C(=O)C=C4[C@@H]5C[C@@](C)(C(=O)O)CC[C@]5(C)CC[C@@]4(C)[C@]3(C)CC[C@@H]12 [ammonium glycyrrhizinate] |  | generally not fermented to any significant degree and are less cariogenic than sucrose |  |
| OC[C@@H](O)[C@@H](O)[C@H](O)[C@@H](O)CO [Sorbitol] | 0.5-0.6 | generally not fermented to any significant degree and are less cariogenic than sucrose |  |
| OC[C@@H](O)[C@H](O)[C@@H](O)CO [Xylitol] | 1.0 | generally not fermented to any significant degree and are less cariogenic than sucrose | effect on development of new caries [6]: inhibit the development of new caries; effect on food intake [7]: decrease food intake; effect on gastric emptying [7]: prolong gastric emptying |
| COc1ccc([C@@H]2CC(=O)c3c(O)cc(O[C@@H]4O[C@H](CO)[C@@H](O)[C@H](O)[C@H]4O[C@@H]4O[C@@H](C)[C@H](O)[C@@H](O)[C@H]4O)cc3O2)cc1O [Neohesperidine] | 1000 |  |  |
| OC[C@@H](O)[C@@H](O[C@H]1O[C@H](CO)[C@@H](O)[C@H](O)[C@H]1O)[C@H](O)[C@@H](O)CO [Maltitol] | 0.7-0.9 | generally not fermented to any significant degree and are less cariogenic than sucrose |  |
| starch |  | cariogenic or caries causing |  |
| O=C1NS(=O)(=O)c2ccccc21 [Saccharin] | 400-500 |  |  |
| O=C[C@H](O)[C@@H](O)[C@H](O)[C@H](O)CO [glucose] |  | cariogenic or caries causing |  |
| CC1=CC(=O)NS(=O)(=O)O1 [Acesulfame] | 200 |  |  |
| O=C(CO)[C@@H](O)[C@H](O)[C@H](O)CO [fructose] |  | generally not fermented to any significant degree and are less cariogenic than sucrose |  |
| Monellin | 2500 |  |  |
| OC[C@@H](O)[C@@H](O)[C@H](O)[C@H](O)CO [Mannitol] | 0.4-0.6 | generally not fermented to any significant degree and are less cariogenic than sucrose |  |
